Legend:
U-138 MG cells = assay: Apoptosis, caspase-3/7 and 7-AAD flow cytometry, U-138 MG; format: cell-based, human; conditions: 48 h
Method: (§1) Based on the MTT test, the lichen secondary metabolite concentrations allowing the survival of more than 70% of cells were chosen for the subsequent experiments. The compounds were added as follows: A-172 cells—atranorin 25 µM, caperatic acid 50 µM, physodic acid 25 µM, squamatic acid 25 µM, salazinic acid 50 µM, and lecanoric acid 100 µM; T98G cells—atranorin 50 µM, caperatic acid 100 µM, physodic acid 25 µM, squamatic acid 50 µM, salazinic acid 100 µM, and lecanoric acid 100 µM; U-138 MG cells—atranorin 25 µM, caperatic acid 50 µM, physodic acid 25 µM, squamatic acid 50 µM, salazinic acid 50 µM, and lecanoric acid 100 µM. As far as the TMZ treatment is concerned, it was added in the concentrations depending on the MGMT expression and methylation status, i.e., TMZ 30 µM was added to the A-172 cell line, and TMZ 100 µM was added to both the T98G and U-138 MG cell lines. In the case of the 2D culture, the cells were treated with the compounds 24 h after seeding, whereas, in regard to 3D culture, 5 days were needed to form spheroids. All subsequent analyses were performed 48 h after treatment.
The fluorescent-based analysis of apoptosis using Muse® Caspase-3/7 Kit was performed in order to analyze the percentage of live, early, and late apoptotic; total apoptotic; and dead cells in A-172, T98G, and U-138 MG GBM cells treated with lichen secondary metabolites. The principle of the method relies on the measurement of the activity of executioner caspases, i.e., caspase-3 and caspase-7, as well as analyzing the integrity of the cell membrane with the use of a dead cell marker 7-AAD. Cell seeding and treatment followed the same protocol as for cell cycle or ROS generation analysis, while the subsequent procedures were performed according to the manufacturer’s recommendations.

[1] = system: Wnt/β-catenin pathway target genes in U-138 MG cells; assay: qPCR of β-catenin and Wnt target genes, U-138 MG; format: cell-based, human; conditions: 48 h; for expression of the Wnt target genes: co-treatment with TMZ 100 µM
Method: as §1
(§2) The Universal RNA Purification Kit (EURx, Gdańsk, Poland) was used for total RNA isolation from the A-172, T98G, and U-138 MG cells, and the Revert-Aid First Strand cDNA Synthesis kit (Fermentas, Burlington, ON, Canada) was chosen for cDNA synthesis. Quantitative real-time PCR (qPCR) was performed using Hot FIREPol EvaGreen qPCR Mix Plus (Solis Biodyne, Tartu, Estonia) and LightCycler 96 (Roche Diagnostics GmbH, Mannheim, Germany). Primer sequences were previously published and their synthesis was performed at the Institute of Biochemistry and Biophysics, Warsaw, Poland. The protocol started with 15 min enzyme activation at 95 °C, followed by 40 cycles of 95 °C for 15 s; appropriate annealing temperature for 20 s; 72 °C for 40 s and the final elongation at 72 °C for 5 min. Melting curve analysis was used to confirm the generation of a single amplification product. TATA box-binding protein (TBP), a component of the DNA-binding protein complex TFIID, served as the endogenous RNA control. The results were expressed as N-fold differences in the gene expression relative to the TBP gene. The ΔΔCt method was used for fold-change calculation. All samples were analyzed in triplicate, and the reaction was repeated at least twice.

[2] = system: Wnt/β-catenin pathway target genes in T98G cells; assay: qPCR of β-catenin and Wnt target genes, T98G; format: cell-based, human; conditions: 48 h
Method: as §1, §2

[3] = system: Wnt/β-catenin pathway target genes in A-172 cells; assay: qPCR of β-catenin and Wnt target genes, A-172; format: cell-based, human; conditions: A-172, 48 h
Method: as §1, §2

T98G cells = assay: MTT test, T98G; format: cell-based; conditions: Homo sapiens, 48 h, three independent experiments, read-out: IC50 [uM] ± SEM T98G
Method: Three human GBM cell lines were used in this study, i.e., A-172 (ATCC-CRL-1620), T98G (92090213), and U-138 MG (ATCC-HTB-16). The A-172 and U-138 MG cell lines were purchased from the American Type Culture Collection (ATCC), whereas the T98G cell line was obtained from the European Collection of Authenticated Cell Cultures (ECACC). It has been confirmed by us that O^6-methylguanine-DNA methyltransferase (MGMT), the key factor determining the response to alkylating agents, such as TMZ, is expressed in T98G and U-138 MG cells, whereas in A-172 the expression of MGMT is silenced by promoter methylation. Therefore, the cell lines differ in terms of TMZ sensitivity; A-172 is regarded as TMZ sensitive, whereas T98G and U-138 MG are TMZ resistant.
The cells were grown as monolayers (2D cell culture) in the recommended media: A-172 were grown in the ATCC-formulated DMEM (Merck, Darmstadt, Germany), whereas T98G and U-138 MG cell lines were grown in the ATCC-formulated EMEM (Merck, Darmstadt, Germany). These media were supplemented with FBS (Biowest, Nuaillé, France) to a final concentration of 10%, as well as antibiotics (penicillin and streptomycin) (Merck, Darmstadt, Germany) to the final concentrations of 1%. For the experiments, the amount of FBS was reduced to 5%. The medium for the T98G cell line was supplemented with 2 mM glutamine, 1% nonessential amino acids, and 1% sodium pyruvate (all purchased from Merck, Darmstadt, Germany).
In order to analyze the cytotoxicity of the analyzed lichen secondary metabolites, as well as to establish the appropriate concentrations for further analysis (allowing the survival of >70% of cells), we performed the MTT test. The procedure of the test was described previously. Briefly, the cells (10,000 cells per well) were seeded on the 96-well plates and left for 24 h. Afterwards, the analyzed compounds in the concentration range of 1 µM up to 100 µM were added to the cells and left for 48 h incubation. DMSO treated cells served as control. After the above-mentioned time, the cells were washed twice with warm PBS and incubated for 3 h in the presence of a fresh medium containing MTT salt (0.5 mg/mL). Then the formazan crystals were dissolved in acidic isopropanol. The absorbance was measured at 570 and 690 nm on a Tecan Infinite M200 microplate reader (Grödig, Austria). The experiments were repeated at least three times.

[4] = mRNA vs DMSO control, single agent
[5] = mRNA vs DMSO control, single agent, (TMZ 30 µM)
[6] = mRNA vs DMSO control, single agent, TMZ 100 µM

Compound | effect on apoptosis (U-138 MG cells) | Axin2 expression [1, 4] | c-MYC expression [2, 4] | Axin2 expression [3, 5] | IC50 (T98G cells) | expression of the Wnt target genes [1] | NEDD9 expression [2, 4] | Axin2 expression ([2]; co-treatment with TMZ 100 µM) | CCND1 expression ([2]; co-treatment with TMZ 100 µM) | c-MYC expression ([2]; co-treatment with TMZ 100 µM) | β-catenin (CTNNB1) expression ([2]; co-treatment with TMZ 100 µM) | also measured
COC(=O)c1c(C)cc(OC(=O)c2c(C)cc(O)c(C=O)c2O)c(C)c1O [Atranorin] | anti-apoptotic effect | downregulated | trend towards downregulation, but with no statistical significance | downregulated | 98.6 ± 7.8 µM | – | – | – | – | – | – | –
CCCCCCCCCCCCCCC(C(=O)O)C(O)(CC(=O)OC)C(=O)O (stereo not shown) [Caperatic acid] | anti-apoptotic effect | downregulated | – | downregulated | > 100 µM | huge downregulatory effect | downregulated | – | – | – | – | NEDD9 expression [1, 6]: downregulated; NEDD9 expression [3, 4]: downregulated
Cc1cc(OC(=O)c2c(C)cc(O)cc2O)cc(O)c1C(=O)O [Lecanoric acid] | – | – | – | – | > 100 µM | – | – | downregulated | downregulated | downregulated | downregulated | number of late apoptotic cells vs control (U-138 MG cells; 100 µM): increased; percentage of early apoptotic cells vs control (U-138 MG cells; 100 µM): decreased; c-MYC expression [3, 5]: upregulated
Cc1cc(O)c(C=O)c2c1C(=O)Oc1c(CO)c(O)c3c(c1O2)C(O)OC3=O (stereo not shown) [Salazinic acid] | – | – | upregulated | – | – | huge downregulatory effect | – | trend toward downregulation | – | – | – | BIRC5 expression [1, 4]: diminished; CCND1 expression [1, 4]: downregulated CCND1 expression by around half; number of the six analyzed genes downregulated ([2]; co-treatment with TMZ 100 µM): five out of six; CCND1 expression [2, 4]: significantly upregulated; BIRC5 expression [2, 6]: downregulated
COc1cc(C)c(C(=O)Oc2cc(C)c(C(=O)O)c(O)c2C)c(O)c1C(=O)O [Squamatic acid] | – | downregulated | trend towards downregulation, but with no statistical significance | downregulated | > 100 µM | – | downregulation | – | downregulated | downregulated | downregulated | NEDD9 expression ([2]; co-treatment with TMZ 100 µM): downregulated; CCND1 expression ([3]; co-treatment with TMZ 30 µM): upregulation; BIRC5 expression [3, 4]: diminished
